The record followed here is patent US10870647B2, “Imidazopyridine derivative, method for preparing same, and pharmaceutical composition containing same as active ingredient for preventing or treating cancer” (DAEGU-GYEONGBUK MEDICAL INNOVATION FOUNDATION, priority 2016, dated 2020).

What all share (experiment): Kinase selectivity, scanMAX Kinase assay panel (DiscoverX), % control at 1 uM
Holding throughout (format): binding

In test [1] the target is T1, scanMAX Kinase assay panel (Homo sapiens, UniProt O00506).
T1 construct: purchased DiscoverX
The settings on record: YSK1; 1 uM; read-out: Percent Control (%). The gist of the method:
(§1)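 Compounds were tested at 1 uM in DMSO against each enzyme in the panel. Percent control was calculated as (compound − positive control)/(negative control − positive control) × 100, and a compound was scored active on a kinase when this value fell below 35.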

Test [2] deals with T2, scanMAX Kinase assay panel (Homo sapiens, UniProt O15264).
T2 construct: purchased DiscoverX
T2 sequence (O15264 1-365): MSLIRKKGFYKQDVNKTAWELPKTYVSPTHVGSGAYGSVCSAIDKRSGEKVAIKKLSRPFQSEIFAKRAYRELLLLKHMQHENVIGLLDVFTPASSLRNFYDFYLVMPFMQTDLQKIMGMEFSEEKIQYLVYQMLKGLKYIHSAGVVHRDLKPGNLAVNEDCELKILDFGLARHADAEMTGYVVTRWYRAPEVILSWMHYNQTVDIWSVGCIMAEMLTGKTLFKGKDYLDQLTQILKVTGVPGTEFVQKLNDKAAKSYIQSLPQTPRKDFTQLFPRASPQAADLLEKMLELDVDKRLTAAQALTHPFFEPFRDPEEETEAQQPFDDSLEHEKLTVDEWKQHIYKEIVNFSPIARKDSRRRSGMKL
The settings on record: p38-delta; 1 uM; read-out: Percent Control (%). An outline of the steps:
as §1

Test [3] deals with T3, scanMAX Kinase assay panel (Homo sapiens, UniProt O75716).
T3 construct: purchased DiscoverX
The note with it: STK16; 1 uM; read-out: Percent Control (%). An outline of the steps:
as §1

Test [4] has as its target T4, scanMAX Kinase assay panel (Homo sapiens, UniProt P20794).
T4 construct: purchased DiscoverX
T4 sequence (P20794 1-623): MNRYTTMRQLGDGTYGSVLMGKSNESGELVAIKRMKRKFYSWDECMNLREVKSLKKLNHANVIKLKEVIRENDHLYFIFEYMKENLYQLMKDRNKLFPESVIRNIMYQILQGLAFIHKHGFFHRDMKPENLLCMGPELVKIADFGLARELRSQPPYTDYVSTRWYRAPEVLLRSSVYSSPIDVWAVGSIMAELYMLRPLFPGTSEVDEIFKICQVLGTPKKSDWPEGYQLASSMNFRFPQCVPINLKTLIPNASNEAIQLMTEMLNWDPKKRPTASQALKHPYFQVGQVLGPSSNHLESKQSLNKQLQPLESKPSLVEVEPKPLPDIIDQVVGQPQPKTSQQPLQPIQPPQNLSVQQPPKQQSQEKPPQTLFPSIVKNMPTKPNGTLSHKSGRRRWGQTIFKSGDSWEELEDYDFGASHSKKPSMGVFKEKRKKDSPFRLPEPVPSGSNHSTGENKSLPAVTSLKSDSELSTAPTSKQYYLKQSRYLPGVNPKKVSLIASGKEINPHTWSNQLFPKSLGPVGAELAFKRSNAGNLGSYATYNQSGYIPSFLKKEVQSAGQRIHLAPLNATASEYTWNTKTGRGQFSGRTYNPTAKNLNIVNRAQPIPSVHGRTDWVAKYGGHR
The settings on record: MAK; 1 uM; read-out: Percent Control (%). The gist of the method:
as §1

Test [5] deals with T5, scanMAX Kinase assay panel (Homo sapiens, UniProt P31152).
T5 construct: purchased DiscoverX
The note with it: ERK4; 1 uM; read-out: Percent Control (%). An outline of the steps: as §1

In test [6] the target is T6, scanMAX Kinase assay panel (Homo sapiens, UniProt P51451).
T6 construct: purchased DiscoverX
The note with it: BLK; 1 uM; read-out: Percent Control (%). The gist of the method: as §1

Test [7] concerns the target T7, scanMAX Kinase assay panel (Homo sapiens, UniProt Q14004).
T7 construct: purchased DiscoverX
The note with it: CDC2L5; 1 uM; read-out: Percent Control (%). An outline of the steps: as §1

Test [8] deals with T8, scanMAX Kinase assay panel (Homo sapiens, UniProt Q8NEB9).
T8 construct: purchased DiscoverX
The note with it: VPS34; 1 uM; read-out: Percent Control (%). An outline of the steps:
as §1

Test [9] concerns the target T9, scanMAX Kinase assay panel (Homo sapiens, UniProt Q96SB4).
T9 construct: purchased DiscoverX
The note with it: SRPK1; 1 uM; read-out: Percent Control (%). The gist of the method:
as §1

The target in test [10] is T10, scanMAX Kinase assay panel (Homo sapiens, UniProt Q9BYT3).
T10 construct: purchased DiscoverX
The settings on record: STK33; 1 uM; read-out: Percent Control (%). The gist of the method:
as §1

The target in test [11] is T11, scanMAX Kinase assay panel (Homo sapiens, UniProt Q9P2K8, S808G).
T11 construct: purchased DiscoverX
The note with it: GCN2 (Kin.Dom.2, S808G); 1 uM; read-out: Percent Control (%). An outline of the steps:
as §1

Test [12] deals with T12, scanMAX Kinase assay panel (Homo sapiens, UniProt Q9Y2H1).
T12 construct: purchased DiscoverX
The settings on record: NDR2; 1 uM; read-out: Percent Control (%). The gist of the method:
as §1

T7 sequence (Q14004 whole entry): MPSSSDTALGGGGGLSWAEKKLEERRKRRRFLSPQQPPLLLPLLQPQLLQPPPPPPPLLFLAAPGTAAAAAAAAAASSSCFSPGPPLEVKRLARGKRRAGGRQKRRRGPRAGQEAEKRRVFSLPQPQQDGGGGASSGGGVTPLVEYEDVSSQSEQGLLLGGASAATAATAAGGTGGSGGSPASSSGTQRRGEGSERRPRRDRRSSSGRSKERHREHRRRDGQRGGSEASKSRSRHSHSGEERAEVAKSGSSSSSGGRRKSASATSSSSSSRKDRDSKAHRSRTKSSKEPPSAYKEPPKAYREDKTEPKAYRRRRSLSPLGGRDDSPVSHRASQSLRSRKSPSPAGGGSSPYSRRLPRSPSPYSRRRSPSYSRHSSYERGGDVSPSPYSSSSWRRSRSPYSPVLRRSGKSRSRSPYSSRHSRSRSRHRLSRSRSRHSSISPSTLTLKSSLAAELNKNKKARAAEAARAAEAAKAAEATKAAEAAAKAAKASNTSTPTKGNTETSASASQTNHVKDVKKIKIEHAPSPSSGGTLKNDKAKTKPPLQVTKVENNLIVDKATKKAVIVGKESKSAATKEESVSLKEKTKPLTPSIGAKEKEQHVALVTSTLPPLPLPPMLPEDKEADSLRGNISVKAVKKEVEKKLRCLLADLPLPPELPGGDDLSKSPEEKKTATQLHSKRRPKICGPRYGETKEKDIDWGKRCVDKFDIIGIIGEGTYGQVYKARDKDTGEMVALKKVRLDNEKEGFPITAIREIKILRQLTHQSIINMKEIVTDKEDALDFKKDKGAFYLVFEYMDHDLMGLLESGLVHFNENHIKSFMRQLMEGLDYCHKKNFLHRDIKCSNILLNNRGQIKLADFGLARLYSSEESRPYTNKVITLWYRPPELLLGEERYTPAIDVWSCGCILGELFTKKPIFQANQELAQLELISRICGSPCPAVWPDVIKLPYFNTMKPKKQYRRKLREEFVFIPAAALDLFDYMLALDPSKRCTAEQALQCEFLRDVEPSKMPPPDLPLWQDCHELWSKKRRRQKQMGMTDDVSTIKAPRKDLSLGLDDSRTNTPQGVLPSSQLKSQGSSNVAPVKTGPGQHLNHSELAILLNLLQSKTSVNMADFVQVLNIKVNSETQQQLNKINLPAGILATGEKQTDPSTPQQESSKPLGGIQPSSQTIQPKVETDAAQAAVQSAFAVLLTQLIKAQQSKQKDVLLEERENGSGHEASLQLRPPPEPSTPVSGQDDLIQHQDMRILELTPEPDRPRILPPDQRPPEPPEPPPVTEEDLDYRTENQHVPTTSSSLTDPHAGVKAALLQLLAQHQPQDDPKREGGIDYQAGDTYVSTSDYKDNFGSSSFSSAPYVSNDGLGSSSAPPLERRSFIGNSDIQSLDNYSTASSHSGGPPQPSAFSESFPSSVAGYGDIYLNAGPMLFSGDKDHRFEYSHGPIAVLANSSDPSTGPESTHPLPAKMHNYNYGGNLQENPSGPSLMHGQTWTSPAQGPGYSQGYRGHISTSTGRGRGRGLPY
T10 sequence (Q9BYT3 whole entry): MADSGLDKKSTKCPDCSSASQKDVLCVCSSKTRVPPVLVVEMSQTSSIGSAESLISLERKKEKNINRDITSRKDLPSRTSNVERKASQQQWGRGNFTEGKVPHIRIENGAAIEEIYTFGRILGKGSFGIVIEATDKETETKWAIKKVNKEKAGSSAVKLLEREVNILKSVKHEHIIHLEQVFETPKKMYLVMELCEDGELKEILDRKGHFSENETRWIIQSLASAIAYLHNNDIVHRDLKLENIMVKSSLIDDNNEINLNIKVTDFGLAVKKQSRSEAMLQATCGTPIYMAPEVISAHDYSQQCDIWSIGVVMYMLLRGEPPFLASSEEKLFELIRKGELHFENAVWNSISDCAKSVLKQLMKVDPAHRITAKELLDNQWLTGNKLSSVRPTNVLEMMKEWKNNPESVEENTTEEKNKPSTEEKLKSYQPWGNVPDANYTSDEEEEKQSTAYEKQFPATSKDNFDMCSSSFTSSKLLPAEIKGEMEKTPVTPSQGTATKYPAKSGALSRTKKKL
T6 sequence (P51451 whole entry): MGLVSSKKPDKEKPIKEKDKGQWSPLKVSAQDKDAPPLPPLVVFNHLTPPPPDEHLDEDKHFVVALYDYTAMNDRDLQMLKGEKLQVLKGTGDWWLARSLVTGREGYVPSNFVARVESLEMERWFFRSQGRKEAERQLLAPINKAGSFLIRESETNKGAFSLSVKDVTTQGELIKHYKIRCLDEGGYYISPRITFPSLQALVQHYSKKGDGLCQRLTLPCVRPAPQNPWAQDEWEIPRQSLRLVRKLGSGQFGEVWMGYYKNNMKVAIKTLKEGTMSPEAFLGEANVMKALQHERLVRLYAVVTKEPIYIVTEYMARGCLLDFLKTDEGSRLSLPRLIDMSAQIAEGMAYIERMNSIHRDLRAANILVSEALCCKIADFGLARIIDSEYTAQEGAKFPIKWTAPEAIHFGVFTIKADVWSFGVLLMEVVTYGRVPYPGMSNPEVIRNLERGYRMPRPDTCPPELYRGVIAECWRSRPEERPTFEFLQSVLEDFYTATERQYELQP
T12 sequence (Q9Y2H1 whole entry): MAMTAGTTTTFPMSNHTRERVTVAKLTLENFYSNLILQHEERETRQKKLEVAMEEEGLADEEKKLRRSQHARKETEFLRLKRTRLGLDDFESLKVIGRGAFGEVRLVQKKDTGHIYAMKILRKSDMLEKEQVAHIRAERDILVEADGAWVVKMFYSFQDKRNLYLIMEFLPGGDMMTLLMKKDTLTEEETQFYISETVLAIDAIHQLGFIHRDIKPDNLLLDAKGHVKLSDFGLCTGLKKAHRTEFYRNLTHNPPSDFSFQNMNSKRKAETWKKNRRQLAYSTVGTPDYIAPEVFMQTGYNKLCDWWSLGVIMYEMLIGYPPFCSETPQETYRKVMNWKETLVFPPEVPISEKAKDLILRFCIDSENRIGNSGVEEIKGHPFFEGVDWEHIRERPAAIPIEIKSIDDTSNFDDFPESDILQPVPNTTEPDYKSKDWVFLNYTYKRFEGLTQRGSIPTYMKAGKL
T3 sequence (O75716 whole entry): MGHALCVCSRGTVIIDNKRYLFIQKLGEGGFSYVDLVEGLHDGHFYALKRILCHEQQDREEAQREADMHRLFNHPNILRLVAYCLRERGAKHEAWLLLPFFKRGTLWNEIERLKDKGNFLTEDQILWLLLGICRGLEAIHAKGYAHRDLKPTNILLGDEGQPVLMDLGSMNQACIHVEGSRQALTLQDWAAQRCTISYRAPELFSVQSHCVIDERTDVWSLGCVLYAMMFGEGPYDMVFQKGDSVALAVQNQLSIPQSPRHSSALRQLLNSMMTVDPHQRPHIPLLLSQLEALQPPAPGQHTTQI
T11 sequence (Q9P2K8 whole entry S808G): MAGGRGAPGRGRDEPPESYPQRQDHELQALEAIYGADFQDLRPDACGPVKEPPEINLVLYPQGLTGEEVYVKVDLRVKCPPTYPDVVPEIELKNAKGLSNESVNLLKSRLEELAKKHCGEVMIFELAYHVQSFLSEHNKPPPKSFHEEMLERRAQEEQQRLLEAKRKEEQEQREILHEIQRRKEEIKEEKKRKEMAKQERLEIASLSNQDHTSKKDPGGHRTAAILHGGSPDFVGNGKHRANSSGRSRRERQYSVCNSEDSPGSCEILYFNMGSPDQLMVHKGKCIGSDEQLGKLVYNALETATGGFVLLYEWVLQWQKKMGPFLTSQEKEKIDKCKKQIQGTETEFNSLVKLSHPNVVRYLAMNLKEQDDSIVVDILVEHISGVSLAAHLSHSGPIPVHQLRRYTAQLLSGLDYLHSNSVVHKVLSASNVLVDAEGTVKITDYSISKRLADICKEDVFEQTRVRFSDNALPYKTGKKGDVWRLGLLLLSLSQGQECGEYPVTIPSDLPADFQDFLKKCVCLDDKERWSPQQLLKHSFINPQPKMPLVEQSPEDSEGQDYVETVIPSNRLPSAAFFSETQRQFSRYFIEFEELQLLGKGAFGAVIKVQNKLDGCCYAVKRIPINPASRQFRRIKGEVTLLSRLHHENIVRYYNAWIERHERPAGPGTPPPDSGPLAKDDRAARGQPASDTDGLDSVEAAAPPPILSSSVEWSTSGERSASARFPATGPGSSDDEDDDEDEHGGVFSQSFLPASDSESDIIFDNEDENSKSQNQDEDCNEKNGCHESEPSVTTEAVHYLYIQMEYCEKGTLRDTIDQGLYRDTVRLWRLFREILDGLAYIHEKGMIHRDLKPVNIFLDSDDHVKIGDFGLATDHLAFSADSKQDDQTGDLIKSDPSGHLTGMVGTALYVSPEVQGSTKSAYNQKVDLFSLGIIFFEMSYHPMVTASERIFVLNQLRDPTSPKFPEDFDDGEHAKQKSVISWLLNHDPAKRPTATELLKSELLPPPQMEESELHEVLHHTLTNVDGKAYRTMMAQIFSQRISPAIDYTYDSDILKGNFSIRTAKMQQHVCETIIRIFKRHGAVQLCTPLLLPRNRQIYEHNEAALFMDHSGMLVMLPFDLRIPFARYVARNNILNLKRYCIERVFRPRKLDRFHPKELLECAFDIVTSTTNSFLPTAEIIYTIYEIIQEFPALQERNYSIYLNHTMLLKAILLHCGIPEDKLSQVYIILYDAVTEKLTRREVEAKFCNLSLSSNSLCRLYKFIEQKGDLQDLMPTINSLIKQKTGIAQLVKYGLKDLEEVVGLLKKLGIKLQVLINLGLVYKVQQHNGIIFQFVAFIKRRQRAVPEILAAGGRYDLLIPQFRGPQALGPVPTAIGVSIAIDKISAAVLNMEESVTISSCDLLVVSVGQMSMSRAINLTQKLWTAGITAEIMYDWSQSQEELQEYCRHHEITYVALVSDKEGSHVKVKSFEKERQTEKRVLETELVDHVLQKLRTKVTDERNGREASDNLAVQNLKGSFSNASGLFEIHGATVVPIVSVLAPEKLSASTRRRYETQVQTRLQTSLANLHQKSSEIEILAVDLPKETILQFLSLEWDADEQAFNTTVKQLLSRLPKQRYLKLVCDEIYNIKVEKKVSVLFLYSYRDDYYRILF

Take `Cc1ccc(C(=O)Nc2ccc(CN3CCN(C)CC3)c(C(F)(F)F)c2)cc1C#Cc1cnc2c(Nc3cnn(C)c3)cccn12` [Example 1, 4-methyl-3-((8-((1-methyl-1H-pyrazol-4-yl)amino)imidazo[1,2-a]pyridin-3-yl)ethynyl)-N-(4-((4-methylpiperazin-1-yl)methyl)-3-(trifluoromethyl)phenyl)benzamide]: the remaining binding at 1 µM stood at 90% in test [1]; 16% in test [2]; 38% in test [3]; 10% in test [4]; 91% in [5]; 0% in [6]. Further, the remaining binding at 1 µM in [7] worked out at 5%; in test [8], 100%; in [9], 3%; in test [10], 5%; in test [11], 0%; in test [12], 23%.
Consider `Cc1cn(-c2cc(NC(=O)c3ccc(C)c(C#Cc4cnc5c(Nc6cnn(C)c6)cccn45)c3)cc(C(F)(F)F)c2)cn1` [Example 12, 4-methyl-N-(3-(4-methyl-1H-imidazol-1-yl)-5-(trifluoromethyl)phenyl)-3-((8-((1-methyl-1H-pyrazol-4-yl)amino)imidazo[1,2-a]pyridin-3-yl)ethynyl)benzamide], for which the remaining binding at 1 µM in test [1] was 86%; in [2], 78%; in test [3], 70%; in test [4] it was 81%; in test [5] it was 100%; in test [6], 1%. Moreover, the remaining binding at 1 µM in test [7] was 27%; in test [8] it was 96%; in [9], 69%; in [10] it was 40%; in test [11] it was 76%; in test [12], 84%.
As to `Cc1ccc(NC(=O)C2(C(=O)Nc3ccc(F)cc3)CC2)cc1C#Cc1cnc2c(Nc3cnn(C(C)C)c3)cccn12` [Example 78], the remaining binding at 1 µM is 100% in test [1]; 100% in test [2]; 99% in test [3]; 100% in test [4]; 100% in [5]; 35% in [6]. Moreover, the remaining binding at 1 µM amounted to 100% in [7]; 80% in test [8]; 97% in test [9]; 100% in test [10]; 89% in [11]; 98% in test [12].
